In ChEMBL document CHEMBL4665672, “Developing new hybrid scaffold for urease inhibition based on carbazole-chalcone conjugates: Synthesis, assessment of therapeutic potential and computational docking analysis” (Bioorg Med Chem, 2019) one finds inhibition and IC50 data, which are given here for 14 compounds.

SMILES strings stand for the structures.

The target in assay [1] is Urease (Canavalia ensiformis) (UniProt P07374). In words: Inhibition of jack bean urease assessed as reduction in ammonia production at 0.5 mM using urea as substrate incubated for 15 mins by indophenol method.
A further assay has as its target Urease (Canavalia ensiformis, UniProt P07374). Nature of the assay: Inhibition of jack bean urease assessed as reduction in ammonia production using urea as substrate incubated for 15 mins by indophenol method.

Chain of Urease (Canavalia ensiformis) (P07374 whole entry, looked up): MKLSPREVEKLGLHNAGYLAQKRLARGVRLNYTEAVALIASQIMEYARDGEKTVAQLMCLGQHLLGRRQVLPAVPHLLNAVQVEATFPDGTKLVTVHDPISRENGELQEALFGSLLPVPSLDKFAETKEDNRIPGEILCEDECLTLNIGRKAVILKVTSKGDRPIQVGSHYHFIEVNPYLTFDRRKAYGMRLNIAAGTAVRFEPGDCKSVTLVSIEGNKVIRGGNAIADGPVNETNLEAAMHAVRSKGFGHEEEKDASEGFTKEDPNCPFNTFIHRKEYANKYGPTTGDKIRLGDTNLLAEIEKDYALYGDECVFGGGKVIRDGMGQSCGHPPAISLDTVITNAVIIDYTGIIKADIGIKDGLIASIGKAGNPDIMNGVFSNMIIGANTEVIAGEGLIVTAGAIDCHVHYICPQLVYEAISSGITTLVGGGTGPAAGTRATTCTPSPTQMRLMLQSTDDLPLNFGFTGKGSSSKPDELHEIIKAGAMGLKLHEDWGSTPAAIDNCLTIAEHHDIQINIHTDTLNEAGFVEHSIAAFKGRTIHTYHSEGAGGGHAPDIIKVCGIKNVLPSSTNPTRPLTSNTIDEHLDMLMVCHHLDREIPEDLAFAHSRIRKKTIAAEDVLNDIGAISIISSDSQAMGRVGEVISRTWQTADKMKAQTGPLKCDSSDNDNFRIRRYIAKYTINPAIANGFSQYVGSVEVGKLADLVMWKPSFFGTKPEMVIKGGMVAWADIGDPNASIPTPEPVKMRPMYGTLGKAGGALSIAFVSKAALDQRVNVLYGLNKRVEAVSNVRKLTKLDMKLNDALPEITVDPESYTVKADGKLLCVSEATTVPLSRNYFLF
Chain of Urease (P07374 whole entry): as the sequence (P07374 whole entry, looked up) above

Consider `CCCCCCCCn1c2ccc(C(C)=O)cc2c2cc(C(=O)/C=C/c3ccc(Cl)cc3)ccc21`, for which the inhibition in assay [1] came out at 95.1%. Moreover, the IC50 at Urease came to 24.7 µM.
On to `CCCCCCCCn1c2ccc(C(C)=O)cc2c2cc(C(=O)/C=C/c3ccccc3)ccc21`, for which the inhibition in assay [1] worked out at 19.3%.
The same measure, in the same setting: as for `CCCCCCCCn1c2ccc(C(C)=O)cc2c2cc(C(=O)/C=C/c3ccccc3Cl)ccc21`, the figure is 24.5%.
Same read-out and setting: as for `CCCCCCCCn1c2ccc(C(C)=O)cc2c2cc(C(=O)/C=C/c3cccc(Br)c3)ccc21`, the figure is 10.9%.
As to `CCCCCCCCn1c2ccc(C(C)=O)cc2c2cc(C(=O)/C=C/c3ccco3)ccc21`, the inhibition in assay [1] amounted to 78.7%. The IC50 on Urease amounted to 24.8 µM.
For `CCCCCCCCn1c2ccc(C(C)=O)cc2c2cc(C(=O)/C=C/c3ccc(N(C)C)cc3)ccc21`, in that order: 22.6% and 149 µM.
For `CCCCCCCCn1c2ccc(C(C)=O)cc2c2cc(C(=O)/C=C/c3cc(OC)c(OC)c(OC)c3)ccc21`, the inhibition in assay [1] amounted to 74.5%. For the same compound, the IC50 at Urease turned out to be 150 µM.
Regarding `CCCCCCCCn1c2ccc(C(C)=O)cc2c2cc(C(=O)/C=C/c3ccccc3Br)ccc21`, the inhibition in assay [1] came out at 94.8%. The IC50 at Urease came to 8.93 µM.
In the case of `CCCCCCCCn1c2ccc(C(C)=O)cc2c2cc(C(=O)/C=C/c3cccc(OC)c3)ccc21`, the inhibition in assay [1] was found to be 7.9%.
In the case of `CCCCCCCCn1c2ccc(C(C)=O)cc2c2cc(C(=O)/C=C/c3ccc([N+](=O)[O-])cc3)ccc21`, in assay [1], the inhibition was 29.3%.
As for `CCCCCCCCn1c2ccc(C(C)=O)cc2c2cc(C(=O)/C=C/c3cccc([N+](=O)[O-])c3)ccc21`, the inhibition in assay [1] amounted to 94.4%. Further, the IC50 on Urease is 14.2 µM.
As to `CCCCCCCCn1c2ccc(C(C)=O)cc2c2cc(C(=O)/C=C/c3ccc(OC)cc3)ccc21`, the inhibition in assay [1] is 98.5%. The IC50 at Urease turned out to be 6.88 µM.
Turning to `CCCCCCCCn1c2ccc(C(C)=O)cc2c2cc(C(=O)/C=C/c3ccc(Br)cc3)ccc21`, the inhibition in assay [1] is 24.9%.
Same read-out and setting: as for `CCCCCCCCn1c2ccc(C(C)=O)cc2c2cc(C(=O)/C=C/c3ccccc3[N+](=O)[O-])ccc21`, the figure is 18.6%.
